Test results: ChEMBL document CHEMBL1201862, “PubChem BioAssay data set” (2004)
Activity calls are given as the source filed them. For most assays here, no stated cut-off is given here; in the data, actives have a measured IC50 and inactives only a lower limit.

Legend:
[1] = biological target: T1, Sentrin-specific protease 7 (Homo sapiens, UniProt Q9BQF6); assay type: functional;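 further: Luminescence-based dose-response confirmation of ultra-high-throughput screening hits, measuring inhibition of SENP7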
T1 sequence (Q9BQF6 whole entry): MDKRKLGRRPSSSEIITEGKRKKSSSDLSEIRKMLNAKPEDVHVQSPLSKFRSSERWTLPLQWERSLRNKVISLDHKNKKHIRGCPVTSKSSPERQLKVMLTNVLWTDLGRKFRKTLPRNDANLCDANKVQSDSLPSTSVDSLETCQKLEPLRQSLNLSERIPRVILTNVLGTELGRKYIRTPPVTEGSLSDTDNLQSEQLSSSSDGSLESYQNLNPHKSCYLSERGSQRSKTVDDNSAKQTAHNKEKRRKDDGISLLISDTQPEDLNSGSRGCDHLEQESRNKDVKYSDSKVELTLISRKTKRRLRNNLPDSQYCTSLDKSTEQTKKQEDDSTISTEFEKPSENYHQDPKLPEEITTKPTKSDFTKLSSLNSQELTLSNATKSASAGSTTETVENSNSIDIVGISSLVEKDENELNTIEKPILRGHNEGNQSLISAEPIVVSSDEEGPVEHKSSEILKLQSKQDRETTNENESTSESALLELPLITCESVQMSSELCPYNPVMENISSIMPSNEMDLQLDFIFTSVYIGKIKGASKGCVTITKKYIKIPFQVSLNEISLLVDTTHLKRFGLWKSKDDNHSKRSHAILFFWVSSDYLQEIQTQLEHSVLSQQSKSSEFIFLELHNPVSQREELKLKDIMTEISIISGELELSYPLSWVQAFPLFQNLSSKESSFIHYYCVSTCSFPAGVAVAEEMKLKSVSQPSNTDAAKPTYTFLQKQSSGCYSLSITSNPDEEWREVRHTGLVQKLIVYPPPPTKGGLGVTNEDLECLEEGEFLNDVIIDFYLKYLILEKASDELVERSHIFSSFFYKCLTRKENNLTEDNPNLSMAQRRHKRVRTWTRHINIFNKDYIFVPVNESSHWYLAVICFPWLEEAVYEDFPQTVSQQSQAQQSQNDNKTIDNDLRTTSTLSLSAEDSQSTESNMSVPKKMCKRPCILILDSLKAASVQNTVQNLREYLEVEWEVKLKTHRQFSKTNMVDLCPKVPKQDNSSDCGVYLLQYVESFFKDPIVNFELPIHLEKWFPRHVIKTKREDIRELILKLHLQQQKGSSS

[2] = biological target: T2, Sentrin-specific protease 6 (Homo sapiens, UniProt Q9GZR1); assay type: functional
T2 sequence (Q9GZR1 whole entry): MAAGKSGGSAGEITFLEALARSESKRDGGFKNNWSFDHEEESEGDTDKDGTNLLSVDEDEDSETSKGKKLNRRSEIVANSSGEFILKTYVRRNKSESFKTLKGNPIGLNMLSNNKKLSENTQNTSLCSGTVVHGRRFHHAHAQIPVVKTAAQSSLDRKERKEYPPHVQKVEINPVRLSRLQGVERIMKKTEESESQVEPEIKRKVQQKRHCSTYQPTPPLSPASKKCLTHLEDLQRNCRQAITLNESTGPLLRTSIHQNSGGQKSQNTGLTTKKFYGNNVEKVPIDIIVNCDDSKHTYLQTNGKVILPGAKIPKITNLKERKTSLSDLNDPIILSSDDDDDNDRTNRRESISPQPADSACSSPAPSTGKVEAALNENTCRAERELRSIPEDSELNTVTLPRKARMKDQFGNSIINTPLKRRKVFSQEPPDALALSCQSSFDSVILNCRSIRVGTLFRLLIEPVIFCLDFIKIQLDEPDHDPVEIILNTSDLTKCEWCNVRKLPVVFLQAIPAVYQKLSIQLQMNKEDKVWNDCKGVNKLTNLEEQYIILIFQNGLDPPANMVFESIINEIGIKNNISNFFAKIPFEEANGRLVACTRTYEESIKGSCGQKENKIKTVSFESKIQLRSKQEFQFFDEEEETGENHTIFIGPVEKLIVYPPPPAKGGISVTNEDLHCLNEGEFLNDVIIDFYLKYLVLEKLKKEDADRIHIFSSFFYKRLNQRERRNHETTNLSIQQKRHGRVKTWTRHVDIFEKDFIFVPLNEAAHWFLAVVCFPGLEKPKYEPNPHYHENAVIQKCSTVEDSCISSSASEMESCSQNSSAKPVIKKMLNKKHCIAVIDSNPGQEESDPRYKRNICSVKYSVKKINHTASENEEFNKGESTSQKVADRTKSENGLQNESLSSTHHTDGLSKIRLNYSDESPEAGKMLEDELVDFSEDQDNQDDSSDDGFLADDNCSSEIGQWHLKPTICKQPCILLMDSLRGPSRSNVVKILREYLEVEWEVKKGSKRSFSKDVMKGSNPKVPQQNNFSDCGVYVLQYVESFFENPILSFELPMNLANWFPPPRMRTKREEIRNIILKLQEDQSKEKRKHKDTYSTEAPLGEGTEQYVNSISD

[3] = biological target: T3, Sentrin-specific protease 8 (Homo sapiens, UniProt Q96LD8); assay type: functional;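 further: luminescence read-out of SENP8 inhibition, dose-response confirmation following an ultra-high-throughput screen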
T3 sequence (Q96LD8 whole entry): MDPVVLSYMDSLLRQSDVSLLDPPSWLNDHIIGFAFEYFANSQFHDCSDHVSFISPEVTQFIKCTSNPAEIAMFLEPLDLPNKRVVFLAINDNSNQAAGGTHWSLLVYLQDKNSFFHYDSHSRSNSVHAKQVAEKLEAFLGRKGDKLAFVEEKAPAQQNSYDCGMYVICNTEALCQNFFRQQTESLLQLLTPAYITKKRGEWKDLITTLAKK

Caspase-3 [4] = biological target: T4, Caspase-3 (Homo sapiens, UniProt P42574); assay: SAR Analysis of small molecule inhibitors of Sentrin-specific proteases (SENPs) using a Caspase-3 Selectivity assay. [Related pubchem assays (depositor defined):AID2540, AID2599, AID434973, AID489001]; assay type: functional
T4 sequence (P42574 whole entry): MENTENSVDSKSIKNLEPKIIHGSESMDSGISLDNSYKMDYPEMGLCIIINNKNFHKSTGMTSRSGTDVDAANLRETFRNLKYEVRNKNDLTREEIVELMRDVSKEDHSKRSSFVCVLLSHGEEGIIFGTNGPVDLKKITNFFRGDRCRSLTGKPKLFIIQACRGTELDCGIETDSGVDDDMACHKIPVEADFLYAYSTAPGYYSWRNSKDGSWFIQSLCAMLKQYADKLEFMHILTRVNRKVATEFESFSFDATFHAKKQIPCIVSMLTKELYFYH

[5] = biological target: T3, Sentrin-specific protease 8; assay: inhibition of human SENP8 cleavage activity – biochemical, luminescence, SAR follow-up (AID 504501); assay type: functional
Caspase-3 [6] = biological target: T4, Caspase-3; assay type: functional
[7] = biological target: T1, Sentrin-specific protease 7; assay: inhibition of human SENP7 cleavage activity – biochemical, luminescence, SAR follow-up (AID 504497); assay type: functional
[8] = biological target: T2, Sentrin-specific protease 6; assay: SAR Analysis of small molecule inhibitors of Sentrin-specific protease 6 (SENP6) using a Luminescent assay. [Related pubchem assays (depositor defined):AID2582, AID2599]; assay type: functional
[9] = THP-1 cell cytotoxicity, dose response, cytotoxicity control for non-replicating M. tuberculosis project (AID 489025); assay type: functional
[10] = biological target: DNA (cytosine-5)-methyltransferase 1 (Homo sapiens, UniProt P26358); assay: inhibition of DNA methylation by DNMT1 – biochemical, fluorescent molecular beacon, confirmation (AID 602386); assay type: functional
cells = assay type: functional
[11] = viability loss in THP-1 monocytes – THP-1 cells, cytotoxicity control for Vif-APOBEC3G degradation inhibitor project, dose response (AID 1117359); assay type: functional; conditions: THP-1
[12] = microbe, parasite or virus in culture; assay type: functional; conditions: Mycobacterium tuberculosis
Vero = assay: viability of Vero cells under compound – cytotoxicity control for flavivirus capping enzyme inhibitors (AID 588742); assay type: functional; conditions: Chlorocebus sabaeus
[13] = A High Throughput Confirmatory Assay used to Identify Novel Compounds that Inhibit Mycobacterium Tuberculosis in the absence of Glycerol.; assay type: functional
[14] = Luminescence Cell-Based Dose Retest to Confirm Inhibitors of Cancer Stem Cells. [Related pubchem assays (depositor defined):AID2717, AID2721]; assay type: functional; conditions: Homo sapiens
Protein Tat = biological target: T5, Protein Tat (Human immunodeficiency virus type 1 group M subtype B (isolate HXB2)(HIV-1), UniProt P04608); assay type: functional;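 further: tat binding to TAR RNA read out by fluorescence polarization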
T5 sequence (P04608 whole entry): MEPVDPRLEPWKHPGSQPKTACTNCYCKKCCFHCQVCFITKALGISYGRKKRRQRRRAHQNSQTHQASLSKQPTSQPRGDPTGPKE

Genome polyprotein [15] = biological target: Genome polyprotein (dengue virus type 2, UniProt P29990); assay: flavivirus cap methylation enzyme inhibition – biochemical, confirmation dose response, primary screen (AID 588689); assay type: functional
Genome polyprotein [16] = biological target: Genome polyprotein (Hepatitis C virus, UniProt Q2Q167); assay: disruption of hepatitis C core self-association – biochemical, TR-FRET, dose response (AID 2159); set-up: species or system Hepacivirus hominis;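 further: blocks dimerization of HCV core protein measured by TR-FRET between tagged core106 pairs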
[17] = biological target: Matrix metalloproteinase-14 (Homo sapiens, UniProt P50281); assay: Dose Response confirmation of uHTS hits for a small molecule inhibitors of MT1-MMP activation in a fluorescence assay set 2.; assay type: functional
[18] = biological target: T1, Sentrin-specific protease 7; assay: inhibition of human SENP7 cleavage activity – biochemical, luminescence, set 2, SAR follow-up (AID 588600); assay type: functional
[19] = biological target: T2, Sentrin-specific protease 6; assay: inhibition of human SENP6 catalytic domain – biochemical, luminescence, set 2, SAR follow-up (AID 588598); assay type: functional
[20] = biological target: T3, Sentrin-specific protease 8; assay: inhibition of sentrin protease 8 – biochemical, luminescence, set 2, SAR follow-up (AID 588601); assay type: functional
Caspase-3 [21] = biological target: T4, Caspase-3; assay: inhibition of recombinant caspase-3 activity – biochemical, luminescence, set 2, selectivity assay for SENP protease inhibitor project, SAR follow-up (AID 588599); assay type: functional
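Wherever AC50 is given: cells exposed to compound for roughly 70 hours or longer before luminescence read.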

DNA (cytosine-5)-methyltransferase 1, sequence (P26358 whole entry): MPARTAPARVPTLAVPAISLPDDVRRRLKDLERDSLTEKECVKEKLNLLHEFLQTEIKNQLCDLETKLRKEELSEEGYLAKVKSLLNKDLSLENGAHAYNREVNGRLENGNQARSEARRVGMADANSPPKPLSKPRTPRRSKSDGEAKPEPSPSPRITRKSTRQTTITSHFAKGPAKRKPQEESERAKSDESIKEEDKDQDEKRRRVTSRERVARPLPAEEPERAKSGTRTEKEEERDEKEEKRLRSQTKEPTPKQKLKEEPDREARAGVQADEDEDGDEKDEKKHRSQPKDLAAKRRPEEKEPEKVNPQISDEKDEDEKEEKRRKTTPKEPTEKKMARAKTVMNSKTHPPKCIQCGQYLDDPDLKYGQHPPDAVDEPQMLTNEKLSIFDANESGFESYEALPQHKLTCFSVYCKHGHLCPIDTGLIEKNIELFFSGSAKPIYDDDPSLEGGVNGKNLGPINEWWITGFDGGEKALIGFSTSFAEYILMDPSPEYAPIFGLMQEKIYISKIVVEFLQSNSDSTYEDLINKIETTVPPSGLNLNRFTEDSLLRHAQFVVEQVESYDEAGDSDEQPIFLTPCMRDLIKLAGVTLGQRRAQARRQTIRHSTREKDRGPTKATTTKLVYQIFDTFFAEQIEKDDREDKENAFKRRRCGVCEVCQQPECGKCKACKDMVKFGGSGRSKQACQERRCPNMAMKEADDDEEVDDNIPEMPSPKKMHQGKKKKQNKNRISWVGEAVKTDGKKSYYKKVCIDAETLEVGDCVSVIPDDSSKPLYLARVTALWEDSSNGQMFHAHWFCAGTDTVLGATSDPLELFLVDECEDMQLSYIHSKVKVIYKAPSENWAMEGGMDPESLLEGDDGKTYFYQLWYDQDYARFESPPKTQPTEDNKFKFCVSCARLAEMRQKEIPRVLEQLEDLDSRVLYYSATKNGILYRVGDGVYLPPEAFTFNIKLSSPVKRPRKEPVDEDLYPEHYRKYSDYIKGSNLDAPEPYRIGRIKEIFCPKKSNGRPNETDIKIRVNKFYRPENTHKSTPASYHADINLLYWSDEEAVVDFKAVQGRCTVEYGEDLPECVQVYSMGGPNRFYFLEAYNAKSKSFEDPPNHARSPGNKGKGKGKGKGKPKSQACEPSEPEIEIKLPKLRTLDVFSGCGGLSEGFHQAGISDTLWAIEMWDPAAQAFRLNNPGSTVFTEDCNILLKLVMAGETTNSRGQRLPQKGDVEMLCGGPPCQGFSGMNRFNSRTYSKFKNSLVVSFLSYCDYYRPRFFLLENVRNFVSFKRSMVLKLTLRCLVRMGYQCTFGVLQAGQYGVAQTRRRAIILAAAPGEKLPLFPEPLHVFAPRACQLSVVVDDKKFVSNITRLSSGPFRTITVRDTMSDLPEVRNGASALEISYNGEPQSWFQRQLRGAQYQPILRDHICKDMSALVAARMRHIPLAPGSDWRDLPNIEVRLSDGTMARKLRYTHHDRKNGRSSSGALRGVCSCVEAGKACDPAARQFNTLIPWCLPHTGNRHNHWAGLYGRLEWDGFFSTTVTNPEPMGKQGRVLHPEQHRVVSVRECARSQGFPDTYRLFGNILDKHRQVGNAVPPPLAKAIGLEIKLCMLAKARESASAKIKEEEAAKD
Genome polyprotein (dengue virus type 2, UniProt P29990), sequence (P29990 2492-3391 limits assumed): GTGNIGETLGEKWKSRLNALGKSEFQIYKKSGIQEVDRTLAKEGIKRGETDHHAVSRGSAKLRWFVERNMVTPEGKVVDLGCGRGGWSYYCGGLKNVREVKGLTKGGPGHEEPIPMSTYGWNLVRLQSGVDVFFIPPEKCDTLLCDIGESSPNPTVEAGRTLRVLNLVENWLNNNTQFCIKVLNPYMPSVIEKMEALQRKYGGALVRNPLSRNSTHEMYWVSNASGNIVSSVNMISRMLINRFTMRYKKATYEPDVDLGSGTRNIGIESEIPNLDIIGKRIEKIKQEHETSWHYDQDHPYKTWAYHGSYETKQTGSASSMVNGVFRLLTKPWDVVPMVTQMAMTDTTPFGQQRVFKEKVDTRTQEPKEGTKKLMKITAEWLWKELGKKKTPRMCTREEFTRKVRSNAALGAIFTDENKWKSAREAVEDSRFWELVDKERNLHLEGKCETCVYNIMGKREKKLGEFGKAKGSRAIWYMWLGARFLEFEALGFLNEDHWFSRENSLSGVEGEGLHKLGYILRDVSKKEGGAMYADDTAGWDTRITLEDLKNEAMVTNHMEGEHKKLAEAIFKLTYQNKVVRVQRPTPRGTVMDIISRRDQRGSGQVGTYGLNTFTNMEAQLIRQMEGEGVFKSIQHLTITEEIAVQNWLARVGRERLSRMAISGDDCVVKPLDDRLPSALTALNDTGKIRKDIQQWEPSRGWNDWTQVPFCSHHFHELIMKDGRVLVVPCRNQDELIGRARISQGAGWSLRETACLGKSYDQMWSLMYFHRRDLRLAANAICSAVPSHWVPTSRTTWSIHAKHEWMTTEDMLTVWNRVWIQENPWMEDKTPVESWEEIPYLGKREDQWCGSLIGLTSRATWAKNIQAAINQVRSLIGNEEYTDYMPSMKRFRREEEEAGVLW
Genome polyprotein (Hepatitis C virus, UniProt Q2Q167), sequence (Q2Q167 whole entry): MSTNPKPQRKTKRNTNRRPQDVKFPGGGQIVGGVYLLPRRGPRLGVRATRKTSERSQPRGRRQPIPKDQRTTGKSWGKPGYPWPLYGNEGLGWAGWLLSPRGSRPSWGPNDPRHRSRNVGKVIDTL

Q: Which results are given for `Cc1cc(O)c(-c2cc(C(=O)Nc3cccnc3)[nH]n2)cc1C`?
A: IC50 [1]: 3.61 µM (active); IC50 [2]: > 100 µM (inactive); IC50 [3]: > 100 µM (inactive); IC50 (Caspase-3 [4]): 8.64 µM (active); IC50 [5]: > 99 µM (inactive); IC50 (Caspase-3 [6]): 32.2 µM (active); IC50 [7]: 2.97 µM (active); IC50 [8]: > 99 µM (inactive)

Q: What does the source list for `Cn1cccc1/C=C1/C(=O)NC(=S)N(Cc2ccc(F)cc2)C1=O`?
A: CC50 [9]: 14.5 µM (active); IC50 [10]: 3.55 µM (active); IC50 (cells): 33.9 µM (active); CC50 [11]: > 40 µM (active); CC50 [12]: 23 µM (active); CC50 (Vero): > 40 µM (active); IC50 [13]: > 100 µM (active); AC50 [14]: 1.18 µM (active); IC50 (Protein Tat): > 100 µM (active); IC50 (Genome polyprotein [15]): > 100 µM (active); IC50 (Genome polyprotein [16]): > 49.8 µM (not active); IC50 [17]: 55.3 µM (inactive)

Q: Which IC50 [18] does the source give for `O=S(=O)(c1ccc2[nH]cc(/C=N\NC(=S)Nc3cccc(Cl)c3)c2c1)N1CCCCC1` here?
A: > 99 µM (inactive)

Q: What about the IC50 [19] of the same compound?
A: > 99 µM (inactive)

Q: What about the IC50 [20] of the same compound?
A: > 99 µM (inactive)

Q: And the IC50 (Caspase-3 [21])?
A: > 99 µM (inactive)
